Target: T1, hSARM1 (Homo sapiens, UniProt Q6SZW1)
T1 construct: This assay makes use of full length SARM1, which encompasses the ARM, SAM and TIR domains; made in house; host or cells: NRK1-HEK293T cells (transient transfection; cleared lysate used as enzyme)
T1 sequence (Q6SZW1 28-724): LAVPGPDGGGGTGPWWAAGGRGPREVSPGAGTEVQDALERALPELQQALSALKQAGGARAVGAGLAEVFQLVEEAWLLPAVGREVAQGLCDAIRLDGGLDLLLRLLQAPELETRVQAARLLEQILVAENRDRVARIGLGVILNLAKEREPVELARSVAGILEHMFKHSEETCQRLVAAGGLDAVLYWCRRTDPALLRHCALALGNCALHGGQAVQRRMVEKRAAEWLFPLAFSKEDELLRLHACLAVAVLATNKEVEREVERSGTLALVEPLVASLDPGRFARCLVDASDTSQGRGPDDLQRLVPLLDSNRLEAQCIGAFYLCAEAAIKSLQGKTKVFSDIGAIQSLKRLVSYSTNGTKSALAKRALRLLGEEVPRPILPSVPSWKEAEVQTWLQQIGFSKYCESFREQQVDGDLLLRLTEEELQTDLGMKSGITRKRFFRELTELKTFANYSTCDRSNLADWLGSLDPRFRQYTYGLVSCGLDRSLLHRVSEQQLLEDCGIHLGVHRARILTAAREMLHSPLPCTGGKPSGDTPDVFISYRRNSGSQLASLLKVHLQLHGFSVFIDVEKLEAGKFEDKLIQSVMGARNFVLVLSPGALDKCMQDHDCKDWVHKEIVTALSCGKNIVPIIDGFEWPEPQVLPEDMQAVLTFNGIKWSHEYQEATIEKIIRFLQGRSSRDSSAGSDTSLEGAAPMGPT
Assay: ARM-SAM-TIR SARM1 IC50 Assay (NADase activity, NAD+ cleavage, RapidFire MS)
Type: biochemical
Details: ARM-SAM-TIR lysate 5 μg/mL, 2 hrs. pre-incubation with compound, 5 μM NAD+, 2 hrs. incubation
Description: This describes an assay of ARM-SAM-TIR NADase activity and use of this assay to measure the efficacy of compounds of the present invention to block SARM1 mediated NAD+ cleavage. This assay was optimized in such a way as to characterize the efficacy of the compounds of the present invention to inhibit SARM1 activity and to calculate an IC50 value for each compound. This assay makes use of full length SARM1, which encompasses the ARM, SAM and TIR domains.
NRK1-HEK293T cells were seeded onto 150 cm^2 plates at 20×10^6 cells per plate. The next day, the cells were transfected with 15 μg ARM-SAM-TIR expression plasmid (SEQ ID NO: 1 as disclosed in WO 2019/236879, Pages 77-81; Paragraph) [0310]).
The cultures were supplemented with 1 mM NR at time of transfection to minimize toxicity from ARM-SAM-TIR overexpression. Forty-eight hours after transfection, cells were harvested, pelleted by centrifugation at 1,000 rpm (Sorvall ST 16R centrifuge, Thermo Fisher), and washed once with cold PBS (0.01 M phosphate buffered saline NaCl 0.138 M; KCl 0.0027 M; pH 7.4). The cells were resuspended in PBS with protease inhibitors (Complete™ protease inhibitor cocktail, Roche product #11873580001) and cell lysates were prepared by sonication (Branson Sonifer 450, output=3, 20 episodes of stroke). The lysates were centrifuged (12,000×g for 10 min at 4° C.) to remove cell debris and the supernatants (containing ARM-SAM-TIR protein) were stored at −80° C. for later use in the in vitro ARM-SAM-TIR NADase assay (see below). Protein concentration was determined by the Bicinchoninic (BCA) method and used to normalize lysate concentrations.
The enzymatic assay was performed in a 384-well polypropylene plate in Dulbecco's PBS buffer in a final assay volume of 20 μL. ARM-SAM-TIR lysate with a final concentration of 5 μg/mL was pre-incubated with the respective compound at 1% DMSO final assay concentration over 2 hrs. at room temperature. The reaction was initiated by addition of 5 μM final assay concentration of NAD+ as substrate. After a 2 hrs. ambient temperature incubation, the reaction was terminated with 40 μL of stop solution of 7.5% trichloroacetic acid in acetonitrile. The NAD+ and ADPR concentrations were analyzed by a RapidFire High Throughput Mass Spectrometry System (Agilent Technologies, Santa Clara, CA) using an API4000 triple quadrupole mass spectrometer (AB Sciex Framingham, MA).
Compounds having an activity designated as “A” provided an IC50<50 nM; compounds having an activity designated as “B” provided an IC50 51-100 nM; compounds having an activity designated as “C” provided an IC50 101-500 nM; compounds having an activity designated as “D” provided an IC50 501-1000 nM; compounds having an activity designated as “E” provided an IC50>1000 nM.

| SMILES | IC50 [nM] |
| --- | --- |
| O=C(CCc1ccc(Cl)nc1)Nc1[nH]nc2c1c(=O)[nH]c1cnccc12 [Example 1, 3-(6-Chloropyridin-3-yl)-N-(4-oxo-4,5-dihydro-2H-pyrazolo[4,3-c][1,7]naphthyridin-3-yl)propanamide] | 101 to 500 |
| O=C(CCc1ccc(F)nc1)Nc1[nH]nc2c1c(=O)[nH]c1cnccc12 [Example 2, 3-(6-Fluoropyridin-3-y1)-N-(4-oxo-4,5-dihydro-2H-pyrazolo[4,3-c][1,7]naphthyridin-3-yl)propanamide] | 101 to 500 |
| O=C(CCc1ccc(Cl)cc1)Nc1[nH]nc2c1c(=O)[nH]c1cnccc12 [Example 3, 3-(4-Chlorophenyl)-N-(4-oxo-4,5-dihydro-2H-pyrazolo[4,3-c][1,7]naphthyridin-3-yl)propanamide] | < 50 |
| O=C(CCc1ccc(Cl)c(F)c1)Nc1[nH]nc2c1c(=O)[nH]c1cnccc12 [Example 4, 3-(4-Chloro-3-fluorophenyl)-N-(4-oxo-4,5-dihydro-2H-pyrazolo[4,3-c][1,7]naphthyridin-3-yl)propanamide] | < 50 |
| O=C(CCc1cnc(Cl)c(F)c1)Nc1[nH]nc2c1c(=O)[nH]c1cnccc12 [Example 5, 3-(6-Chloro-5-fluoro-3-pyridyl)-N-(4-oxo-2,5-dihydropyrazolo[4,3-c][1,7]naphthyridin-3-y1)propanamide] | 51 to 100 |
| O=C(CCc1ccc(F)c(F)c1)Nc1[nH]nc2c1c(=O)[nH]c1cnccc12 [Example 6, 3-(3,4-Difluorophenyl)-N-(4-oxo-4,5-dihydro-2H-pyrazolo[4,3-c][1,7]naphthyridin-3-yl)propanamide] | < 50 |
| NC(=O)c1c(-c2ccncc2)n[nH]c1NC(=O)CCc1ccc(Cl)c(Cl)c1 [Example 7, 5-(3-(3,4-Dichlorophenyl)propanamido)-3-(pyridin-4-yl)-1H-pyrazole-4-carboxamide] | 51 to 100 |
| NC(=O)c1c(-c2ccncc2)n[nH]c1NC(=O)CCc1ccc(F)c(F)c1 [Example 8, 5-(3-(3,4-Difluorophenyl)propanamido)-3-(pyridin-4-y1)-1H-pyrazole-4-carboxamide] | 101 to 500 |
| NC(=O)c1c(-c2ccncc2)n[nH]c1NC(=O)CCc1ccc(Cl)nc1 [Example 9, 5-(3-(6-Chloropyridin-3-yl)propanamido)-3-(pyridin-4-y1)-1H-pyrazole-4-carboxamide] | 101 to 500 |
| NC(=O)c1c(-c2ccncc2)n[nH]c1NC(=O)CCc1ccc(F)cc1 [Example 10, 5-(3-(4-Fluorophenyl)propanamido)-3-(pyridin-4-yl)-1H-pyrazole-4-carboxamide] | 101 to 500 |
| NC(=O)c1c(-c2ccncc2)n[nH]c1NC(=O)CCc1cc(F)cc(F)c1 [Example 11, 5-(3-(3,5-Difluorophenyl)propanamido)-3-(pyridin-4-y1)-1H-pyrazole-4-carboxamide-] | 501 to 1000 |
| NC(=O)c1c(-c2ccncc2)n[nH]c1NC(=O)CCc1cnc(Cl)c(F)c1 [Example 12, 5-(3-(6-Chloro-5-fluoropyridin-3-yl)propanamido)-3-(pyridin-4-yl)-1H-pyrazole-4-carboxamide] | 101 to 500 |
| NC(=O)c1c(-c2ccncc2)n[nH]c1NC(=O)CCc1ccc(Cl)cc1 [Example 13, 5-(3-(4-Chlorophenyl)propanamido)-3-(pyridin-4-yl)-1H-pyrazole-4-carboxamide] | < 50 |
| NC(=O)c1c(-c2ccncc2)n[nH]c1NC(=O)CCc1ccc(Cl)c(F)c1 [Example 14, 5-(3-(4-Chloro-3-fluorophenyl)propanamido)-3-(pyridin-4-yl)-1H-pyrazole-4-carboxamide] | < 50 |
| NC(=O)c1c(-c2ccncc2)n[nH]c1NC(=O)CCc1ccc(Cl)s1 [Example 15, 5-(3-(5-Chlorothiophen-2-yl)propanamido)-3-(pyridin-4-y1)-1H-pyrazole-4-carboxamide] | 101 to 500 |
| Cc1cnncc1-c1n[nH]c(NC(=O)CCc2ccc(F)nc2)c1C(N)=O [Example 16, 5-(3-(6-Fluoropyridin-3-yl)propanamido)-3-(5-methylpyridazin-4-yl)-1H-pyrazole-4-carboxamide] | > 1000 |
| Cc1cnncc1-c1n[nH]c(NC(=O)CCc2ccc(Cl)c(F)c2)c1C(N)=O [Example 17, 5-(3-(4-Chloro-3-fluorophenyl)propanamido)-3-(5-methylpyridazin-4-y1)-1H-pyrazole-4-carboxamide] | 501 to 1000 |
| CNC(=O)c1c(-c2ccnnc2)n[nH]c1NC(=O)CCc1ccc(F)nc1 [Example 18, 5-(3-(6-Fluoropyridin-3-yl)propanamido)-N-methyl-3-(pyridazin-4-y1)-1H-pyrazole-4-carboxamide] | > 1000 |

The remaining lines, values ahead:

| IC50 [nM] | SMILES |
| --- | --- |
| > 1000 | NC(=O)c1c(-c2ccnnc2)n[nH]c1NC(=O)CCc1ccc(F)nc1 [Example 19, 5-(3-(6-Fluoropyridin-3-yl)propanamido)-3-(pyridazin-4-yl)-1H-pyrazole-4-carboxamide] |
| 101 to 500 | NC(=O)c1c(-c2ccnnc2)n[nH]c1NC(=O)CCc1cnc(Cl)c(F)c1 [Example 20, 5-(3-(6-Chloro-5-fluoropyridin-3-yl)propanamido)-3-(pyridazin-4-y1)-1H-pyrazole-4-carboxamide] |
| 51 to 100 | NC(=O)c1c(-c2ccnnc2)n[nH]c1NC(=O)CCc1ccc(Cl)c(F)c1 [Example 21, 5-(3-(4-Chloro-3-fluorophenyl)propanamido)-3-(pyridazin-4-yl)-1H-pyrazole-4-carboxamide] |
| 501 to 1000 | NC(=O)c1c(-c2ccncc2)n[nH]c1NC(=O)CCc1ccc(F)nc1 [Example 22, 5-(3-(6-Fluoropyridin-3-yl)propanamido)-3-(pyridin-4-yl)-1H-pyrazole-4-carboxamide] |
| 101 to 500 | NC(=O)c1c(-c2ccncc2)n[nH]c1NC(=O)CCc1ccc(C(F)(F)F)cc1 [Example 23, 3-(Pyridin-4-y1)-5-(3-(4-(trifluoromethyl)phenyl)propanamido)-1H-pyrazole-4-carboxamide] |
| 101 to 500 | CNC(=O)c1c(-c2ccncc2)n[nH]c1NC(=O)CCc1ccc(Cl)cc1 [Example 24, 3-(3-(4-chlorophenyl)propanamido)-N-methyl-5-(pyridin-4-yl)-1H-pyrazole-4-carboxamide] |
| 101 to 500 | O=C1NCN(C(=O)CCc2ccc(Cl)cc2)c2[nH]nc(-c3ccncc3)c21 [Example 25, 7-(3-(4-Chlorophenyl)propanoyl)-3-(pyridin-4-yl)-1,5,6,7-tetrahydro-4H-pyrazolo[3,4-d]pyrimidin-4-one] |
| 101 to 500 | O=C1NCN(C(=O)CCc2ccc(Cl)c(F)c2)c2[nH]nc(-c3ccncc3)c21 [Example 26, 7-(3-(4-Chloro-3-fluorophenyl)propanoy1)-3-(pyridin-4-y1)-1,5,6,7-tetrahydro-4H-pyrazolo[3,4-d]pyrimidin-4-one] |
| > 1000 | O=C1NCN(C(=O)CCc2cnc(Cl)c(F)c2)c2[nH]nc(-c3ccncc3)c21 [Example 27, 7-(3-(6-Chloro-5-fluoropyridin-3-y1)propanoyl)-3-(pyridin-4-y1)-1,5,6,7-tetrahydro-4H-pyrazolo[3,4-d]pyrimidin-4-one] |

Reference: patent US20260226056A1, “SUBSTITUTED 1H-PYRAZOLE-4-CARBOXAMIDES AS SARM1 INHIBITORS” (DISARM THERAPEUTICS, INC., priority 2023, published 2026)
